The target of the assay is T1, Angiotensin II Receptor (Bos taurus, UniProt P25104).
T1 construct: The brownish tissue forming the adrenal cortex is scraped off and finely minced with scissors before homogenization; tissue Maxwell-Cohen (local slaughter house); host or cells: beef adrenal cortex, microsomal (100,000 x g) membranes
T1 sequence (P25104 1-359): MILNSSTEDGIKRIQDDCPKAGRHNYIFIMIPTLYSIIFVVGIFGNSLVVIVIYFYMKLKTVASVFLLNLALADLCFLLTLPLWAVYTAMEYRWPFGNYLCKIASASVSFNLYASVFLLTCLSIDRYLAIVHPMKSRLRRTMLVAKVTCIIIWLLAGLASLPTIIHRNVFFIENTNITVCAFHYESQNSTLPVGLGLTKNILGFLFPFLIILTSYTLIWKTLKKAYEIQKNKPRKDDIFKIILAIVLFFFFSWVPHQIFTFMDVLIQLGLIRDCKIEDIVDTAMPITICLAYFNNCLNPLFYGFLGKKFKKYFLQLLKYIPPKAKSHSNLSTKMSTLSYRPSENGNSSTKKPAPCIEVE
Kind of assay: [125I](Sar1,Ile8)AngII receptor binding assay, bovine adrenal cortex membranes. Conditions: beef adrenal cortex membranes. The text has this:
Beef adrenals are obtained from a local slaughter house (Maxwell-Cohen). [^125 I](Sar^1,ILe^8)-AngII, S.A. 2200 Ci/mmole, is purchased from Dupont (NEN®, Boston, Mass.). All unlabeled AngII analogs, Dimethylsulfoxide (DMSO), nucleotides, bovine serum albumin (BSA) are purchased from Sigma Chemical Co., St. Louis, MO U.S.A.
Approximately sixteen (16) to twenty (20) beef adrenal glands are processed as follows: fresh adrenal glands received on crushed ice are cleaned of fatty tissues and the tough membranes encapsulating the glands are removed and discarded. The brownish tissue forming the adrenal cortex is scraped off and finely minced with scissors before homogenization. Care is taken to avoid contamination with medullary tissue during dissection. The scraped cortices are suspended in twenty volumes of an ice-cold buffer medium consisting of 10 mM Tris.HCl (pH 7.4 at 22° C.) and containing 1.0 mM EDTA and 0.2M sucrose. Unless otherwise indicated, all subsequent operations are done at 4° C. […] The homogenate is centrifuged first at low speed (3,000 ×g) for 10 min. […] A 100 ul aliquot is withdrawn and the protein content of the preparation is determined by the Lowry's method (Lowry, O.H., Rosebrough, N.F., Farr, A.L. and Randall, R.J., Protein measurement with Folin phenol reagent. J. Biol. Chem., […], 265-275, 1951). […]

Turning to `CCCCc1nc2ccc(C3=NN4CCCCC4C3)cc2c(=O)n1Cc1ccc(-c2ccccc2-c2nnn[nH]2)cc1` (centres unmarked) [Example 11], the IC50 is 56.4 nM.

With `CCCCc1nc2ccc(C3=NN4CCCC4C3)cc2c(=O)n1Cc1ccc(-c2ccccc2-c2nnn[nH]2)cc1` (centres unmarked) [Example 10, 2-Butyl-6-(3a,4,5,6-tetrahydro-3H-pyrrolo[1,2-b]-pyrazol-2-yl)-3-[[2'-(1H-tetrazol-5-yl)[1,1'-biphenyl]-4-yl]methyl]-4(3H)-quinazolinone], the IC50 turned out to be 102 nM.

One may read the IC50 as the concentration at which inhibition is half-maximal. A low value points to inhibition by little substance.

For the origin of these results see patent publication US5292742A, “Angiotensin II receptor blocking 2,3,6 substituted quinazolinones” (American Cyanamid Company, priority 1993, dated 1994).
